{
  "source": "paper PMC7377239",
  "about": "“Cardiovascular Effects of Polychlorinated Biphenyls and Their Major Metabolites” (Environmental Health Perspectives, 2020)",
  "key": {"[1]": {"tested_on": "iCell endothelial cells (human iPSC-derived ECs)", "assay": "Tube formation (tubulogenesis) assay in iCell endothelial cells, 18 h", "format": "cell-based", "conditions": "Homo sapiens, Endothelial cell, iPSC-EC; for activity at 0.1 µM: 0.10 µM; for minimal effective concentration: 100.00 = highest concentration tested", "outline": "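Tube formation was measured by calcein AM imaging after overnight compound exposure (37°C, 0.5% DMSO vehicle) of human iPSC-derived ECs, 7,500/well, on reduced-growth-factor Geltrex in starvation medium. Vehicle-normalized data fitted to four-parameter logistic; POD set at one vehicle SD; without response, 100 μM taken as NOAEL.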"}, "[2]": {"tested_on": "HUVECs", "assay": "High-content imaging cytotoxicity in HUVECs, 24 h", "format": "cell-based, human", "conditions": "Homo sapiens, HUVEC, 24 h, HUVECs; for viability at 0.01 µM / activity at 0.01 µM: concentration 0.01 µM; for viability at 0.01 µM / activity at 0.01 µM / viability at 0.1 µM / activity at 0.1 µM / viability at 1 µM / activity at 1 µM / viability at 10 µM / activity at 10 µM / viability at 100 µM / activity at 100 µM: 0.00 µM = 100.00; for viability at 0.1 µM / activity at 0.1 µM: concentration 0.10 µM; for viability at 1 µM / activity at 1 µM: concentration 1.00 µM; for viability at 10 µM / activity at 10 µM: concentration 10.00 µM; for viability at 100 µM / activity at 100 µM: concentration 100.00 µM; for minimal effective concentration: MAX 100.00", "outline": "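Confluent HUVEC monolayers, passages 1–5, received test chemicals for 24 h. Cytotoxicity was scored from triple-stain high-content images, with PODs defined by a one-SD deviation from 0.5% DMSO vehicle controls.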"}, "[3]": {"conditions": "0.00 µM = 100.00, read-out: endo.mtl.18hr"}, "[4]": {"conditions": "0.00 µM = 100.00, read-out: endo.tlps.18hr"}, "[5]": {"conditions": "0.00 µM = 100.00, read-out: endo.tta.18hr"}, "[6]": {"conditions": "0.00 µM = 100.00, read-out: endo.ttl.18hr"}, "[7]": {"conditions": "24 hr, read-out: huvec.cyto.24hr"}, "[8]": {"conditions": "24 hr, read-out: huvec.mito.24hr"}, "[9]": {"conditions": "24 hr, read-out: huvec.mitoint.24hr"}, "[10]": {"conditions": "24 hr, read-out: huvec.nma.24hr"}, "[11]": {"conditions": "24 hrs, read-out: huvec.tc.24hrs"}},
  "note": "Where two headings read alike, the source gives them in different places.",
  "data": [
    {"smiles": "Clc1cc(Cl)c(-c2cc(Cl)c(Cl)cc2Cl)cc1Cl", "note": "[PCB153]", "values": [
      {"measurement": "activity at 0.01 µM", "setting": "[1]; [3]", "result": 121, "unit": "%"},
      {"measurement": "activity at 0.01 µM", "setting": "[1]; [4]", "result": 80.7, "unit": "%"},
      {"measurement": "activity at 0.01 µM", "setting": "[1]; [5]", "result": 103, "unit": "%"},
      {"measurement": "activity at 0.01 µM", "setting": "[1]; [6]", "result": 116, "unit": "%"},
      {"measurement": "activity at 0.1 µM", "setting": "[1]; [3]", "result": 119, "unit": "%"},
      {"measurement": "activity at 0.1 µM", "setting": "[1]; [4]", "result": 104, "unit": "%"},
      {"measurement": "activity at 0.1 µM", "setting": "[1]; [5]", "result": 124, "unit": "%"},
      {"measurement": "activity at 0.1 µM", "setting": "[1]; [6]", "result": 134, "unit": "%"},
      {"measurement": "activity at 1 µM", "setting": "[1]; [3]", "result": 122, "unit": "%"},
      {"measurement": "activity at 1 µM", "setting": "[1]; [4]", "result": 111, "unit": "%"},
      {"measurement": "activity at 1 µM", "setting": "[1]; [5]", "result": 111, "unit": "%"},
      {"measurement": "activity at 1 µM", "setting": "[1]; [6]", "result": 123, "unit": "%"},
      {"measurement": "activity at 10 µM", "setting": "[1]; [3]", "result": 135, "unit": "%"},
      {"measurement": "activity at 10 µM", "setting": "[1]; [4]", "result": 202, "unit": "%"},
      {"measurement": "activity at 10 µM", "setting": "[1]; [5]", "result": 148, "unit": "%"},
      {"measurement": "activity at 10 µM", "setting": "[1]; [6]", "result": 157, "unit": "%"},
      {"measurement": "activity at 100 µM", "setting": "[1]; [3]", "result": 55.1, "unit": "%"},
      {"measurement": "activity at 100 µM", "setting": "[1]; [4]", "result": 21.1, "unit": "%"},
      {"measurement": "activity at 100 µM", "setting": "[1]; [5]", "result": 20.2, "unit": "%"},
      {"measurement": "activity at 100 µM", "setting": "[1]; [6]", "result": 22.9, "unit": "%"},
      {"measurement": "minimal effective concentration", "setting": "[1]; read-out: endo.mtl.18hr POD", "result": 0.007, "unit": "µM"},
      {"measurement": "minimal effective concentration", "setting": "[1]; read-out: endo.tlps.18hr POD", "result": 1.93, "unit": "µM"},
      {"measurement": "minimal effective concentration", "setting": "[1]; read-out: endo.tta.18hr POD", "result": 3.83, "unit": "µM"},
      {"measurement": "minimal effective concentration", "setting": "[1]; read-out: endo.ttl.18hr POD", "result": 0.58, "unit": "µM"},
      {"measurement": "viability at 0.01 µM", "setting": "[2]; [7]", "result": 89.7, "unit": "%"},
      {"measurement": "activity at 0.01 µM", "setting": "[2]; [8]", "result": 88.6, "unit": "%"},
      {"measurement": "activity at 0.01 µM", "setting": "[2]; [9]", "result": 89.5, "unit": "%"},
      {"measurement": "activity at 0.01 µM", "setting": "[2]; [10]", "result": 98.4, "unit": "%"},
      {"measurement": "viability at 0.1 µM", "setting": "[2]; [7]", "result": 85, "unit": "%"},
      {"measurement": "activity at 0.1 µM", "setting": "[2]; [8]", "result": 83.8, "unit": "%"},
      {"measurement": "activity at 0.1 µM", "setting": "[2]; [9]", "result": 93, "unit": "%"},
      {"measurement": "activity at 0.1 µM", "setting": "[2]; [10]", "result": 97, "unit": "%"},
      {"measurement": "viability at 1 µM", "setting": "[2]; [7]", "result": 94.2, "unit": "%"},
      {"measurement": "activity at 1 µM", "setting": "[2]; [8]", "result": 93.9, "unit": "%"},
      {"measurement": "activity at 1 µM", "setting": "[2]; [9]", "result": 92.2, "unit": "%"},
      {"measurement": "activity at 1 µM", "setting": "[2]; [10]", "result": 97.3, "unit": "%"},
      {"measurement": "viability at 10 µM", "setting": "[2]; [7]", "result": 66.9, "unit": "%"},
      {"measurement": "activity at 10 µM", "setting": "[2]; [8]", "result": 53.7, "unit": "%"},
      {"measurement": "activity at 10 µM", "setting": "[2]; [9]", "result": 45.8, "unit": "%"},
      {"measurement": "activity at 10 µM", "setting": "[2]; [10]", "result": 66.9, "unit": "%"},
      {"measurement": "viability at 100 µM", "setting": "[2]; [7]", "result": 66.2, "unit": "%"},
      {"measurement": "activity at 100 µM", "setting": "[2]; [8]", "result": 34.5, "unit": "%"},
      {"measurement": "activity at 100 µM", "setting": "[2]; [9]", "result": 13.2, "unit": "%"},
      {"measurement": "activity at 100 µM", "setting": "[2]; [10]", "result": 65.8, "unit": "%"},
      {"measurement": "minimal effective concentration", "setting": "[2]; 24 hr, read-out: huvec.cyto.24hr POD", "result": 0.0171, "unit": "µM"},
      {"measurement": "minimal effective concentration", "setting": "[2]; 24 hr, read-out: huvec.mito.24hr POD", "result": 0.75, "unit": "µM"},
      {"measurement": "minimal effective concentration", "setting": "[2]; 24 hr, read-out: huvec.mitoint.24hr POD", "result": 0.83, "unit": "µM"},
      {"measurement": "minimal effective concentration", "setting": "[2]; 24 hr, read-out: huvec.nma.24hr POD", "result": 1.01, "unit": "µM"},
      {"measurement": "viability at 0.01 µM", "setting": "[2]; [11]", "result": 89.7, "unit": "%"},
      {"measurement": "viability at 0.1 µM", "setting": "[2]; [11]", "result": 85, "unit": "%"},
      {"measurement": "viability at 1 µM", "setting": "[2]; [11]", "result": 94.2, "unit": "%"},
      {"measurement": "viability at 10 µM", "setting": "[2]; [11]", "result": 67, "unit": "%"},
      {"measurement": "viability at 100 µM", "setting": "[2]; [11]", "result": 66.2, "unit": "%"},
      {"measurement": "minimal effective concentration", "setting": "[2]; 24 hrs, read-out: huvec.tc.24hrs POD", "result": 0.0171, "unit": "µM"}
    ]}
  ]
}
